Laboratory results taken from patent US5639887A, “MDR reversal agents” (priority 1995, dated 1997).

What was measured:
[1] = system: human epidermoid carcinoma KB/8.5; test: In vivo evaluation of MDR-1 reversal agents against human epidermoid carcinoma KB/8.5 implanted SC in athymic nude mice; design: species or system human (tumor in athymic nude mice)
Protocol: The multiple drug resistant human epidermoid carcinoma KB/8.5 is propagated in medium containing colchicine (10 nanograms/ml) to maintain drug resistance. Colchicine is removed from the medium, for two cell passages, prior to subcutaneous (SC) implant of 8×10^6 KB/8.5 tumor cells into athymic "nude" mice (Harlan Sprague Dawley). […] Individual mouse tumor mass and mean tumor mass for each treatment group is determined on Day +14 and Day +21 of the test period. For each treatment group, the Relative Tumor Growth, RTG, is calculated as follows: [formula]
Statistical analysis of Log Relative Tumor Growth is carried out using the Student t-test. Transformation of the data from absolute mean tumor mass (mgs tumor mass) to Log Relative Tumor Growth prior to statistical analysis has two beneficial effects:
1) it corrects the data for differences in mean tumor mass of the different treatment groups at the start of the test period (Day 0); and
2) the Log transformation of the data more adequately reflects the exponential growth pattern of the SC tumors and makes the use of the Student t-test more appropriate.

[2] = system: vincristine resistant murine leukemia P388/VCR; test: In vivo evaluation of MDR-1 reversal agents against vincristine resistant murine leukemia P388/VCR implanted IP in CDF1 mice; conditions: for % ILS: vs vincristine alone
Protocol: Tumor cell ascites are harvested 5-7 days later. For drug testing, groups of 10-15 CDF1 mice (DBA/2×Balb/cF1 hybrids; Charles River Laboratories, Inc) are injected IP with 0.5 ml of diluted ascitic fluid containing 1×10^6 viable P388/VCR tumor cells. […] Drugs are administered once daily, by the IP, intravenous (IV) or oral route, starting one day after tumor implantation and using a variety of treatment schedules. Mice are weighed periodically, survival is recorded for 30 days post tumor implantation, and Mean survival times are calculated for all groups of mice. Statistical analysis of Mean survival times is carried out using the Student t-test.

[3] = vincristine 0.2 + compound 75 mg/kg, days 1-7, IP
[4] = vincristine 0.2 + compound 100 mg/kg, days 1-7, ORAL
[5] = vincristine 0.2 + compound 200 mg/kg, days 1-7, ORAL
[6] = vincristine 0.4 + compound 25.0 mg/kg, days 1-3, IP
[7] = vincristine 0.4 + compound 50.0 mg/kg, days 1-3, IP
[8] = vincristine 0.2 + compound 25 mg/kg, days 1-7, IP
[9] = vincristine 0.2 + compound 50 mg/kg, days 1-7, IP
[10] = doxorubicin 8 mg/kg IV + compound 75 mg/kg/dose SC at -2 h and +2 h
[11] = doxorubicin 8 mg/kg IV + compound 200 mg/kg/dose SC at -2 h and +2 h
[12] = vincristine 0.2 + compound 6.3 mg/kg, days 1-7, IP
[13] = doxorubicin 8 mg/kg IV + compound 150 mg/kg/dose SC at -2 h and +2 h
[14] = vincristine 0.2 + compound 25 mg/kg, days 1-5, IP
[15] = vincristine 0.2 + compound 50 mg/kg, days 1-5, IP
[16] = vincristine 0.4 + compound 25 mg/kg, days 1-3,6,7, IV
[17] = vincristine 0.4 + compound 50 mg/kg, days 1-3,6,7, IV
[18] = vincristine 0.6 + compound 6.3 mg/kg, days 1,5,9, IP
[19] = vincristine 0.6 + compound 25 mg/kg, days 1,2, IV
[20] = vincristine 0.6 + compound 25 mg/kg, days 1,5,9, IP
[21] = vincristine 0.6 + compound 50 mg/kg, days 1,2, IV
[22] = vincristine 0.8 + compound 25 mg/kg, days 1,2, IV

## COc1ccc(C(C#N)(CCCN2CCc3cc(OC)c(OC)cc3C2)Sc2ccc(C)cc2)cc1OC (stereo not drawn) [Example 3, α-(3,4-Dimethoxyphenyl)-3,4-dihydro-6,7-dimethoxy-α-[(4-methylphenyl)thio]-2(1H)-isoquinolinepentanenitrile]
[1]; doxorubicin 8 mg/kg IV + compound 50 mg/kg/dose SC at -2 h and +2 h
  Relative Tumor Growth Day 21: 8.38
[1]; doxorubicin 8 mg/kg IV + compound 100 mg/kg/dose SC at -2 h and +2 h
  Relative Tumor Growth Day 21: 8.87
[2]; [3]
  MST: 16.7 days
  % ILS: +21%
[2]; [4]
  MST: 15.8 days
  % ILS: +15%
[2]; [5]
  MST: 16.4 days
  % ILS: +20%
[2]; [6]
  MST: 15.6 days
  % ILS: +10%
[2]; [7]
  MST: 16.3 days
  % ILS: +15%

## COC(=O)C(CCCN1CCc2cc(OC)c(OC)cc2C1)(Sc1ccc(C)cc1)c1ccc(OC)c(OC)c1 (stereo not drawn) [Example 12, α-(3,4-Dimethoxyphenyl)-3,4-dihydro-6,7-dimethoxy-α-[(4-methylphenyl)thio]-2(1H)-isoquinolinepentanoic acid methyl ester]
[2]; [8]
  MST: 16.5 days
  % ILS: +9%
[2]; [9]
  MST: 16.7 days
  % ILS: +11%

## COc1ccc(C(C#N)(CCCCCCCCCCCN2CCc3cc(OC)c(OC)cc3C2)Sc2ccc(C)cc2)cc1OC (stereo not drawn) [Example 14, α-(3,4-Dimethoxyphenyl)-3,4-dihydro-6,7-dimethoxy α-[(4-methylphenyl)thio]-2(1H)-isoquinoline tridecanenitrile]
[1]; [10]
  Relative Tumor Growth Day 21: 5.86
[1]; [11]
  Relative Tumor Growth Day 21: 7.84
[2]; [12]
  MST: 14.3 days
  % ILS: +14%

## COc1ccc(C(C#N)(CCCCCN2CCc3ccccc3C2)Sc2ccc(C)cc2)cc1OC (stereo not drawn) [Example 16, α-(3,4-Dimethoxyphenyl)-3,4-dihydro-α-[(4-methylphenyl)thio]-2(1H)-isoquinoline-2-heptanenitrile]
[2]; [8]
  MST: 16.8 days
  % ILS: +11%

## COc1ccc(C(C#N)(CCCCCN2CCc3cc(OC)c(OC)cc3C2)Sc2ccc(C)cc2)cc1OC (stereo not drawn) [Example 17, α-(3,4-Dimethoxyphenyl)-3,4-dihydro-6,7-dimethoxy-α-[(4-methylphenyl)thio]-2(1H)-isoquinolineheptanenitrile]
[1]; doxorubicin 8 mg/kg IV + compound 25 mg/kg/dose SC at -2 h and +2 h
  Relative Tumor Growth Day 21: 9.55
[1]; [13]
  Relative Tumor Growth Day 21: 3.35
[1]; [11]
  Relative Tumor Growth Day 21: 5.30
[1]; doxorubicin 8 mg/kg IV + compound […] SC at -2 h and +2 h
  Relative Tumor Growth Day 21: 8.58
[2]; [14]
  MST: 16.8 days
  % ILS: +22%
[2]; [15]
  MST: 16.1 days
  % ILS: +17%
[2]; [16]
  MST: 13.3 days
  % ILS: +17%
[2]; [17]
  MST: 13.4 days
  % ILS: +18%
[2]; [18]
  MST: 12.9 days
  % ILS: +12%
[2]; [19]
  MST: 10.1 days
  % ILS: +5%
[2]; [20]
  MST: 15.8 days
  % ILS: +38%
[2]; [21]
  MST: 11.1 days
  % ILS: +16%
[2]; [22]
  MST: 11.1 days
  % ILS: +13%

## COc1ccc(C(C#N)(CCCCCCCCN2CCc3cc(OC)c(OC)cc3C2)Sc2ccc(C)cc2)cc1OC (stereo not drawn) [Example 20, α-(3,4-Dimethoxyphenyl]-3,4-dihydro-6,7-dimethoxy-α-[(4-methylphenyl)thio]-2(1H)-isoquinolinedecanenitrile]
[2]; [12]
  MST: 13.5 days
  % ILS: +8%

## COc1ccc(C(C#N)(CCCCCN2CCc3cc4c(cc3C2)OCO4)Sc2ccc(C)cc2)cc1OC (centres unmarked) [Example 21]
[2]; [8]
  MST: 14.5 days
  % ILS: +16%

## COc1ccc2c(c1)CCN(CCCCCC(C#N)(Sc1ccc(C)cc1)c1ccc(OC)c(OC)c1)C2 (centres unmarked) [Example 22]
[2]; [12]
  MST: 15.2 days
  % ILS: +20%

## COc1ccc(C(C#N)(CCCCCN2Cc3cc(OC)c(OC)cc3C2)Sc2ccc(C)cc2)cc1OC (stereo not drawn) [Example 26, α-(3,4-Dimethoxyphenyl)-1,3-dihydro-5,6-dimethoxy-α-[(4-methylphenyl)thio]-2H-isoindole-2-heptanenitrile]
[1]; [10]
  Relative Tumor Growth Day 21: 3.49
[1]; [13]
  Relative Tumor Growth Day 14: Toxic
  Relative Tumor Growth Day 21: Toxic
[1]; [11]
  Relative Tumor Growth Day 14: Toxic
  Relative Tumor Growth Day 21: Toxic
[2]; [12]
  MST: 13.8 days
  % ILS: +23%
[2]; [8]
  MST: 15.8 days
  % ILS: +41%

## COc1ccc(C(C#N)(CCCCCN2CCc3cc(OC)c(OCCn4ccnc4)cc3C2)Sc2ccc(C)cc2)cc1OC (stereo not drawn) [Example 33, α-(3,4-Dimethoxyphenyl)-3,4-dihydro-7-[2-(1H-imidazol-1-yl)ethoxy]-6-methoxy-α-[(4-methylphenyl)thio]-2(1H)-isoquinolineheptanenitrile]
[2]; [8]
  MST: 15.6 days
  % ILS: +39%
[2]; [9]
  MST: 16.6 days
  % ILS: +48%

## COc1ccc(C(C#N)(CCCCCCN2CCc3cc(OC)c(OC)cc3C2)Sc2ccc(C)cc2)cc1OC (stereo not drawn) [Example 37, α-(3.4-Dimethoxyphenyl)-3,4-dihydro-6,7-dimethoxy-α-[(4-methylphenyl)thio]-2(1H)-isoqutnolineoctanenitrile]
[2]; [8]
  MST: 14.7 days
  % ILS: +17%

## COc1cc2c(cc1OC)CN(CCCCCCC(Sc1ccccc1)c1ccccc1)CC2 (centres unmarked) [Example 112, 1,2,3,4-Tetrahydro-6,7-dimethoxy-2-[7-phenyl-7-(phenylthio]heptyl]isoquinoline]
[2]; [8]
  MST: 16.3 days
  % ILS: +45%
[2]; [9]
  MST: 14.2 days
  % ILS: +26%

## CC[C@]1(O)C[C@H]2CN(CCc3c([nH]c4ccccc34)[C@@](C(=O)OC)(c3cc4c(cc3OC)N(C=O)[C@H]3[C@@](O)(C(=O)OC)[C@H](OC(C)=O)[C@]5(CC)C=CCN6CC[C@]43[C@@H]65)C2)C1 [Vincristine, reference compound]
[2]; vincristine alone 0.6 mg/kg, days 1,2, IV
  MST: 9.6 days
[2]; vincristine alone 0.8 mg/kg, days 1,2, IV
  MST: 9.8 days
